Test results taken from patent US10786475B2, “Method for preventing, treating, or improving fatty liver by administering effective amounts of azelaic acid to a subject” (Korea University Research and Business Foundation, priority 2018, dated 2020).

Experiments:
[1] = target: T1, PPARα (Mus musculus, UniProt P23204); experiment: PPRE-luciferase assay in HEK293 cells; format: cell-based; settings: HEK293 cells transfected with pSG5-PPAR alpha, various concentrations of AzA
T1 construct: host or cells: HEK293 cells (Korean Cell Line Bank)
T1 sequence (P23204 1-468): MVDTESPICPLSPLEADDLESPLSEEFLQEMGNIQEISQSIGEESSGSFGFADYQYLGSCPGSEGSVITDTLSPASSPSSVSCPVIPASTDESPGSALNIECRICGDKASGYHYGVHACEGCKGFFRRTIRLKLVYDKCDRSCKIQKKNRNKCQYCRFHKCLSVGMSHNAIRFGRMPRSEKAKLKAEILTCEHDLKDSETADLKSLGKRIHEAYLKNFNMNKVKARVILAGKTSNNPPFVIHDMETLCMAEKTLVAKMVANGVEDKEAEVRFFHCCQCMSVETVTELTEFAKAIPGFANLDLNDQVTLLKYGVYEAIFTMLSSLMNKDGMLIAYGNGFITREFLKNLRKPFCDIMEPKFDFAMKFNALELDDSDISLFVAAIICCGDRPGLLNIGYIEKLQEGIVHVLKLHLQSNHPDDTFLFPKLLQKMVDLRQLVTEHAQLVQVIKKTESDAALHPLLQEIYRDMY
Experimental: To measure PPRE-luciferase, HEK293 cells (Korean Cell Line Bank) seeded on a 24-well plate at […] cells/well were used. pSG5-PPAR alpha (Addgene, MA, USA) was co-transfected according to a given protocol using pCMV-3×PPRE-Luc, a Renilla expression vector and Lipofectamine 2000 (Invitrogen). After 24-hour post-transfection, the cells were treated with various concentrations of an AzA, and then analyzed using a dual luciferase assay kit (Promega, Fitchburg, Wis., USA) and Victor X2 (PerkinElmer, Santa Clara, Calif.). A luciferase fluorescent signal was standardized using Renilla.

[2] = tested on: fatty liver-induced mouse; experiment: Fatty liver inhibitory effect in high-fat diet fatty liver-induced wild-type C57BL/6J mouse; format: in vivo; settings: WT mouse
Experimental: Mice used in the example, which were an eight-week-old C57BL/6J model, were purchased from Samtako, and Olfr544 KO mice were manufactured by Macrogen based on the C57BL/6J model using a CRISPR/Cas9 system. All experiments performed in the example are compliant to a protocol approved by the Animal Experiment Ethics Committee at Korea University (Protocol No. KUIACUC-20170322-1). The mice were acclimated at 21 to 25° C. under a 50 to 60% relative humidity condition for 12 hours before being used in the experiments, and a total of 18 mice were treated with an AzA diluted with distilled water at 50 mg/kg of body weight and distilled water as a control through oral administration for 6 weeks. The mice used in the experiments were fed a high-fat diet containing 60% fat (D12492, Research Diets, Inc) to induce fatty liver, and then a body weight was measured every week.
The measurement of the concentration of triglycerides in liver tissue was performed by homogenizing the obtained liver tissue of a mouse in 600 μL of acetone (Daejung, Korea), storing the homogenate at 4° C. for 24 hours, and obtaining a fat part by centrifugation at 12000 rpm for 10 minutes. The fat part was dried, dissolved in 95% ethanol, quantified using a Cobas C11 autoanalyzer (Roche, Basel, Switzerland), and normalized with a liver weight.
RNA was extracted from liver tissue, and the expression of PPARα and PPARα downstream genes such as Acox1, Cpt1a and Hmgcs2 were analyzed by qPCR according to the method of Example 3-1 described above.
To evaluate fatty acid oxidation, 100 mg of liver tissue was homogenized in a 0.25 M cold sucrose solution, centrifuged at 600 rpm and 4° C. thereby obtaining a supernatant, and then 50 μL of 10% Triton X-100 was added to 450 μL of the supernatant. Subsequently, 5 μL of the sample was mixed with 950 μL of 50 mM Tris-HCl, 10 μL of 20 mM NAD, 3 μL of 0.33 M dithiothreitol, 5 μL of 1.5% BSA, 5 μL of 2% Triton X-100, 10 μL of 10 mM CoA, and 10 μL of 1 mM FAD. The mixture was mixed with 2 μL of 5 mM palmitoyl-CoA, reacted at 37° C. and analyzed at 340 nm for 5 minutes using a spectrophotometer.
A C57BL/6J mouse and an Olfr544 KO mouse were treated with HFD and an AzA for 6 weeks and housed in a metabolic cage for three days, and the result at day 3 was analyzed as an experimental result. An oxygen consumption amount (VO2) and a carbon dioxide production amount (VCO2) were analyzed using an Oxylet Physiocage System (Panlab/Harvard apparatus, Cornella, Spain) and suiteMETABOLISM (V2.2.01, Panlab) software. A respiratory quotient (RQ) was calculated using the formula VCO2/VO2, and energy expenditure was analyzed using the formula EE=VO2×1.11×(3.815+1.232×RQ). The oxidation of a free fatty acid was calculated using the formula (1.6946×VO2)−(1.7012×VCO2).
An AzA (100 mg/kg) was intraperitoneally administered, and then concentration of a glycerol, which is a body fat decomposition marker, was measured. […] To measure glucose resistance and insulin resistance, a glucose and insulin resistance test was performed under a condition, in which glucose ([…]) and insulin (0.35 unit/kg/bw) are administered to a mouse.

[3] = HFD and AzA for 6 weeks, metabolic cage day 3
[4] = high-fat diet, AzA 50 mg/kg oral, 6 weeks
[5] = high-fat diet, AzA 50 mg/kg oral, 6 weeks, compared with control group

## O=C(O)CCCCCCCC(=O)O [AzA, nonanedioic acid]
[1]
  PPARα activity (PPRE-luciferase): direct ligand for PPARα: does not act as a direct ligand for PPARα
[2]
  glucose resistance (glucose resistance test): significantly improved
  insulin resistance (insulin resistance test): significantly improved
[2]; AzA 50 mg/kg/day
  abdominal fat (microCT): significantly decreased
  total fat amount (microCT): significantly decreased
[2]; AzA 100 mg/kg intraperitoneally
  blood glycerol concentration (body fat decomposition marker): stimulated the decomposition of body fats
[2]; [3]
  oxidation of free fatty acids (indirect calorimetric analysis): increase
  respiratory quotient (indirect calorimetric analysis): decrease
[2]; [4]
  expression of PPARα and a target gene thereof in liver tissue: significantly increased
  triglyceride concentration in liver tissue: decreased
[2]; [5]
  body weight: decreased
  fatty acid oxidation rate in liver tissue: increased
